Consider twelve compounds from US20250353855A1, “HETEROCYCLIC AND HETEROARYL COMPOUNDS FOR TREATING HUNTINGTON'S DISEASE” (PTC THERAPEUTICS, INC., priority 2022, published 2025).

Each structure is given as a SMILES string.

One assay relates to Endogenous Huntingtin Protein. Briefly: Endogenous Huntingtin Protein Assay (ELISA-based MSD electrochemiluminescence). Format: cell-based. To be noted: MSD plates coated with MW1 (expanded polyglutamine) or MAB2166 capture antibody; lysates. The procedure:
Compounds of Formula (T) were tested using the Meso Scale Discovery (MSD) Assay provided in International Application No. PCT/US2016/066042, filed on Dec. 11, 2016 and claiming priority to U.S. Provisional Application 62/265,652 filed on Dec. 10, 2015, the entire contents of which are incorporated herein by reference.
The Endogenous Huntingtin Protein assay used in Example 1 was developed using the ELISA-based MSD electrochemiluminescence assay platform.
Meso Scale Discovery (MSD) 96-well or 384-well plates were coated overnight at 4° C. with MW1 (expanded polyglutamine) or MAB2166 monoclonal antibody (for capture) at a concentration of 1 μg/mL in PBS (30 μL per well). Plates were then washed three times with 300 μL wash buffer (0.05% Tween-20 in PBS) and blocked (100 μL blocking buffer; 5% BSA in PBS) for 4-5 hours at room temperature with rotational shaking and then washed three times with wash buffer.
Samples (25 μL) were transferred to the antibody-coated MSD plate and incubated overnight at 4° C. After removal of the lysates, the plate was washed three times with wash buffer, and 25 μL of #5656S (Cell signaling; rabbit monoclonal) secondary antibody (diluted to 0.25 μg/mL in 0.05% Tween-20 in blocking buffer) was added to each well and incubated with shaking for 1 Hour at room temperature. Following incubation with the secondary antibody, the wells were rinsed with wash buffer after which 25 μL of goat anti-rabbit SULFO TAG secondary detection antibody (required aspect of the MSD system) (diluted to 0.25 μg/mL in 0.05% Tween-20 in blocking buffer) was added to each well and incubated with shaking for 1 hour at room temperature. After rinsing three times with wash buffer, 150 μL of read buffer T with surfactant (MSD) were added to each empty well, and the plate was imaged on a SI 6000 imager (MSD) according to manufacturers' instructions provided for 96- or 384-well plates.
A word on the IC50: it is the concentration needed to halve the response being measured. On to `Cc1ncc2cc(-c3cc4ccn([C@H]5CC(C)(C)NC(C)(C)[C@H]5F)c4nn3)c(O)cc2n1` [Cpd 15, 6-{7-[(3S,4S)-3-fluoro-2,2,6,6-tetramethylpiperidin-4-yl]-7H-pyrrolo[2,3-c]pyridazin-3-yl}-2-methylquinazolin-7-ol], for which the half-inhibitory concentration (IC50) is less than 100 nM.

Turning to `Cc1nc2cc(O)c(-c3cc4ccn([C@@H]5CCNC(C)(C)[C@@H]5F)c4nn3)cc2s1` [Cpd 19, 6-{7-[(3R,4R)-3-fluoro-2,2-dimethylpiperidin-4-yl]-7H-pyrrolo[2,3-c]pyridazin-3-yl}-2-methyl-1,3-benzothiazol-5-ol], the IC50 was less than 100 nM.

In the case of `Cc1nc2cc(O)c(-c3cc4ccn([C@@H]5CCNC(C)(C)[C@@H]5F)c4nn3)cc2o1` [Cpd 20, 6-{7-[(3R,4R)-3-fluoro-2,2-dimethylpiperidin-4-yl]-7H-pyrrolo[2,3-c]pyridazin-3-yl}-2-methyl-1,3-benzoxazol-5-ol], the IC50 is less than 100 nM.

Staying with this assay, now noted: MSD plates coated with MW1 (expanded polyglutamine) or MAB2166 capture antibody; lysates; read-out: IC50.
For the compound `Cc1nc2cc(O)c(-c3cc4ncn([C@H]5CC(C)(C)NC6(CC6)C5)c4nn3)cc2s1` [Cpd 11, 6-{7-[(7S)-5,5-dimethyl-4-azaspiro[2.5]octan-7-yl]-7H-imidazo[4,5-c]pyridazin-3-yl}-2-methyl-1,3-benzothiazol-5-ol], the IC50 was less than 100 nM. Same read-out and setting: the value for `Cc1nc2cc(O)c(-c3cc4nnn(C5CC(C)(C)NC6(CC6)C5)c4nn3)cc2s1` (stereo not drawn) [Cpd 12, 6-[3-(5,5-dimethyl-4-azaspiro[2.5]octan-7-yl)-3H-[1,2,3]triazolo[4,5-c]pyridazin-6-yl]-2-methyl-1,3-benzothiazol-5-ol] was less than 100 nM. The same measure, in the same setting: next, `CCc1nc2cc(-c3cc4ccn([C@H]5CC(C)(C)NC(C)(C)[C@H]5F)c4nn3)c(O)cc2o1` [Cpd 13, 2-ethyl-5-{7-[(3S,4S)-3-fluoro-2,2,6,6-tetramethylpiperidin-4-yl]-7H-pyrrolo[2,3-c]pyridazin-3-yl}-1,3-benzoxazol-6-ol]: less than 100 nM; `CCc1nc2cc(-c3cc4ccn([C@H]5CC(C)(C)NC(C)(C)[C@H]5F)c4nn3)c(O)cc2s1` [Cpd 14, 2-ethyl-5-{7-[(3S,4S)-3-fluoro-2,2,6,6-tetramethylpiperidin-4-yl]-7H-pyrrolo[2,3-c]pyridazin-3-yl}-1,3-benzothiazol-6-ol]: less than 100 nM; `CC1(C)C[C@H](n2ccc3cc(-c4cc5cccnc5cc4O)nnc32)[C@H](F)C(C)(C)N1` [Cpd 16, 6-{7-[(3S,4S)-3-fluoro-2,2,6,6-tetramethylpiperidin-4-yl]-7H-pyrrolo[2,3-c]pyridazin-3-yl}quinolin-7-ol]: less than 100 nM. Same read-out and setting: the value for `CC1(C)C[C@H](n2ccc3cc(-c4cc5ncccc5cc4O)nnc32)[C@H](F)C(C)(C)N1` [Cpd 17, 7-{7-[(3S,4S)-3-fluoro-2,2,6,6-tetramethylpiperidin-4-yl]-7H-pyrrolo[2,3-c]pyridazin-3-yl}quinolin-6-ol] was less than 100 nM; that for `Cn1ccc(=O)c2cc(-c3cc4ccn([C@H]5CC(C)(C)NC(C)(C)[C@H]5F)c4nn3)c(O)cc21` [Cpd 18, 6-{7-[(3S,4S)-3-fluoro-2,2,6,6-tetramethylpiperidin-4-yl]-7H-pyrrolo[2,3-c]pyridazin-3-yl}-7-hydroxy-1-methylquinolin-4(1H)-one] was less than 100 nM. For `CC1(C)C[C@H](n2ccc3cc(-c4cc5c(Cl)ccnc5cc4O)nnc32)[C@H](F)C(C)(C)N1` [Cpd 21, 4-chloro-6-{7-[(3S,4S)-3-fluoro-2,2,6,6-tetramethylpiperidin-4-yl]-7H-pyrrolo[2,3-c]pyridazin-3-yl}quinolin-7-ol], the IC50 fell in the range of 100 to 500 nM. On the same count and under the same terms, the value for `Cc1nc2cc(-c3cc4ncn([C@H]5CC(C)(C)NC6(CC6)C5)c4nn3)c(O)cc2o1` [Cpd 23, 5-{7-[(7S)-5,5-dimethyl-4-azaspiro[2.5]octan-7-yl]-7H-imidazo[4,5-c]pyridazin-3-yl}-2-methyl-1,3-benzoxazol-6-ol] was 100 to 500 nM.
